The results in this text go back to the NIST ThermoML archive (doi:10.1016/j.tca.2014.06.017).

The structures appear in SMILES notation. ± gives the expanded uncertainty stated by the source.

For the series the following is noted: Crystal; DTA.

Consider `OC[C@@H](O)[C@@H](O)[C@H](O)[C@H](O)CO` [D-mannitol], for which the Normal melting temperature came out at 162 ± 11 °C.
